For assay [1], the system named is SK-N-BE(2) cells. Kind of assay: Infinium Methylation EPIC array, locus-specific DNA methylation. It counts as cell-based. The procedure:
DNA microarray analysis. DNA extraction was carried out with samples were extracted by using PureLink™ Genomic DNA Mini Kit (Gibco, K182001), according to the protocol provided by the supplier. The DNA was quantified with the Nanodrop and 3 ug was used for bisulfite modification using the EZ DNA methylation kit (D5001, Zymo Research, Orange, CA) according to the protocol provided with the modification step according to the recommendations for array processing of the samples. Control PCR reactions were carried out before array analysis to confirm successful modification of the DNA. The bisulfite-modified DNA (500 ng) was applied to the Infinium MethylationEPIC array (Illumina). After bisulfite treatment of the DNA samples, the cytosines in the CpG sites were genotyped as C/T polymorphisms according to the manufacturer's protocol. Raw array data was collected with 866 k probes for 8 samples across 4 stages (those are control, 5 hours, 24 hours and 48 hours). The fluorescence signals were measured from the BeadArrays using an Illumina BeadStation GX scanner.
The fluorescence data were then analyzed using the GenomeStudio software (Illumina). The software assigns a score called a “b value” to each CpG site, which corresponds to the ratio between the fluorescence signal of the methylated allele (C) and the sum of the fluorescent signals of the methylated (C) and unmethylated (T) alleles. The data generated by the BeadStudio software was exported and further analyses were performed in the R programming environment. Then a detection p-value for every probe in every sample, representing the quality of the signal is generated using method minfi. Poor probes with all samples' p-values larger than or equal to 0.01 are removed which results in 864 k probes left. For methylation levels estimations we use M-Values (log 2 based Methylation signal over unmethylation signal) for analysis.
Differential Methylation Probes are identified by first standardizing M-Values with both rows and columns and then enforced certain direction (hypermethylated or hypomethylated) between control versus treatments. The p-values used in the volcano plot is calculated through Fisher' method by combining quality p-value for all samples with each probe.

In assay [2] the test system is SK-N-BE(2) cells. Kind of assay: 1-13C-glutamine tracing of reductive carboxylation under normoxia or hypoxia. The class given is cell-based. The conditions noted are these: 1 μM NEN. The procedure: Metabolic analysis. For the metabolomics and isotope tracing analysis in vitro, cells were washed with cold PBS, lysed in 80% Ultra LC-MS acetonitrile on ice for 15 minutes, centrifuged at 20,000 g for 10 minutes at 4° C., and supernatant was subjected to mass spectrometry analysis. For the metabolomics analysis in vivo, 10-20 mg tissue were cut off on ice, rinsed if necessary to remove blood, and place in a 2 ml round-bottom cryovial. The tissues were homogenized by 3 times 10 s on/off bursts homogenization in 1 ml 80% methanol on dry ice. Transfer the homogenate to an Eppendorf tube and keep on liquid nitrogen while processing the remaining samples. Incubated all the samples in −80° C. for 30 minutes. After incubation, vortexed the samples for 5 seconds. Then centrifuged the samples at 20,000 g for 10 minutes at 4° C., and supernatant was subjected to mass spectrometry analysis. Resuspend the remaining cellular pellet in 100 ul protein lysis buffer and determine the protein concentration. Then calculate the total protein content per sample.
Liquid chromatography was performed using an Agilent 1290 Infinity LC system (Agilent, Santa Clara, US) coupled to a Q-TOF 6545 mass spectrometer (Agilent, Santa Clara, US). […]

Assay [3] relates to neuroblastoma cells. Briefly: Cell proliferation (cell counting). It counts as cell-based. Particulars: 1 μM NEN vs DMSO. The procedure: Cell proliferation and clonogenic assay. 2×10^4 cells were seeded in 12 well-plate and allowed to attached overnight. […] After treatment, cells were counted using hemocytometer.
The test system of assay [4] is orthotopic neuroblastoma xenograft (SK-N-BE(2) cells). Kind of assay: Orthotopic neuroblastoma xenograft model, tumor growth by ultrasound. It counts as in vivo, mice. The conditions noted are these: diet 2000 ppm NEN (n=4) vs control group (n=6). How it is done: Mouse orthotopic neuroblastoma model. All mouse procedures were performed in accordance with Stanford University recommendations for the care and use of animals and were maintained and handled under protocols approved by the Institutional Animal Care and Use Committee. All procedures were performed with female NC nude mice (Taconic, Hudson, NY, USA) at 7 weeks of age. Procedures and ultrasound measurements (see below) were performed under general anesthesia using isoflurane inhalation. Orthotopic tumors within the adrenal gland were created as described before 16. Briefly, a transverse incision was made on the left flank to locate the left adrenal gland, and […] of phosphate buffered saline (PBS) containing […] SK-N-BE(2) cells were injected into the adrenal gland using a 30 G needle. Fascia and skin were closed in separate layers. Tumor formation was monitored by non-invasive ultrasound measurements, and the animals euthanized when the tumor volume exceeded 1,000 mm^3. Monitoring tumor growth with high frequency ultrasound. After securing the mouse in a prone position, a Visual Sonics Vevo 2100 sonographic probe (Toronto, Ontario, Canada) was applied to the left flank to locate the left adrenal gland and the tumor. […] The tumor volume was measured using the 3-D reconstruction tool (Vevo Software v1.6.0, Toronto, Ontario, Canada).

As for `O=C(Nc1ccc([N+](=O)[O-])cc1Cl)c1cc(Cl)ccc1O` [NEN, 5-chloro-N-(2-chloro-4-nitrophenyl)-2-hydroxybenzamide compound with 2-aminoethanol (1:1)], in assay [1] (1 μM NEN 24 or 48 hours), the “differentially methylated sites close to transcription start sites (TSS200, 1st exon)” value was “more hypomethylated sites than hypermethylated sites”; the “differentially methylated sites in 'shelf' and 'shore' regions (vs CpG islands)” value is on record as “opposite trend”; the “differentially methylated sites in CpG islands” value is reported as “more hypo-methylated sites than hyper-methylated sites”; the “differentially methylated sites in the gene body and 3′ UTR region” value is reported as “more hypermethylated sites than hypomethylated sites”. Further, the “DNA methylation levels of CpG sites in the promoter region of p53 and CTNNBIP1” value in assay [1] (1 μM NEN 24 h) is listed as “upregulated/downregulated”. In addition, the “hypoxia-induced reductive carboxylation flux” value in assay [2] (hypoxia (0.5% oxygen)) is “fully repressed”. The “basal reductive carboxylation flux” value in assay [2] (normoxia) is reported as “reduced”. Moreover, the cell proliferation entry in assay [3] was “significantly inhibited”. Moreover, the tumor growth entry in assay [4] was “significantly slowed”.

Values taken from patent US11918550B2, “Sensitization of cancer cells to differentiation therapy with mitochondrial uncoupler niclosamide ethanolamine” (The Board of Trustees of the Leland Stanford Junior …, priority 2020, dated 2024).
